Source: US12644094B2, “Serpin production” (SOCIETE DES PRODUITS NESTLE S.A., priority 2019, dated 2026)
Ends that are not written are not given here.

Tests used:
[1] = test system: B. longum strain CNCM I-2618 (NCC 2705); test: Serpin protein levels (ELISA) in B. longum NCC 2705 grown on different carbohydrates; format: cell-based, Bifidobacterium longum subsp longum
Method: B. longum strain CNCM I-2618 (NCC 2705) was grown in Biolector (growth conditions—anaerobic, 37° C.) in MRS+5 mM L-cysteine (MRSc) base without sugar, to which different carbohydrates were added.
(§1) 48-well microtiter plate with pH sensor and dissolved oxygen (DO) sensor were used to culture the strains in Biolector (m2p-labs Aachen, Germany). It was continuously shaken to prevent bacteria aggregation for 24 h and 48 h. Cultures were harvested by centrifugation and supernatant was removed. Pellet was resuspended in PBS supplemented with halt protease inhibitor (Sigma) and lysed using glassbeads. Lysate containing both soluble and insoluble material was then collected. Total protein content was measured using Pierce BCA kit (Thermofisher) and serpin protein concentration was determined using ELISA.
(§2) B. longum NCC 2705 was cultured in Biolector (as described in Example 1) in a base of MRSc without sugar, with the addition of different di-saccharides and tri-saccharides, at concentrations of 0.5 wt % and 1 wt %. Cultures were collected after 48 h of growth and analyzed for total & serpin protein levels (as described in Example 1).
as §2, with “short chain fructo-oligosaccharides (FOS),” for “di-saccharides and tri-saccharides,”, “of” for “of 0.5 wt % and”, “16” for “48”
The FOS used were (i) NutraFlora P95 FOs from Ingredion Inc, USA., a short-chain FOS with Glucose-Fructose (GF) chains with DP from 3 to 5 and comprising GF2, GF3 and GF4 molecules; (ii) Orafti P95 from Beneo, a short-chain FOS with DP from 2 to 8.

[2] = test system: B. longum strain CNCM I-2618 (NCC 2705); test: Culture density (Optical Density at 600 nm) of B. longum NCC 2705 grown on carbohydrates; format: cell-based, Bifidobacterium longum subsp longum; details: grown on different carbohydrates for 24 h and 48 h (FIG. 2)
Method: as §1, with “B. longum strain CNCM I-2618 (NCC 2705) was grown in Biolector (growth conditions-anaerobic, 37° C.) in MRS+5 mM L-cysteine (MRSc) base without sugar, to which different carbohydrates were added. 48-well” for “48-well”, “[…]-labs” for “(m2p-labs”

[3] = molecular target: T1, transglutaminase 2 (TG2) (Homo sapiens, UniProt P21980); details: in-vitro, addition of elafin; cited from earlier work
T1 sequence (P21980 1-687): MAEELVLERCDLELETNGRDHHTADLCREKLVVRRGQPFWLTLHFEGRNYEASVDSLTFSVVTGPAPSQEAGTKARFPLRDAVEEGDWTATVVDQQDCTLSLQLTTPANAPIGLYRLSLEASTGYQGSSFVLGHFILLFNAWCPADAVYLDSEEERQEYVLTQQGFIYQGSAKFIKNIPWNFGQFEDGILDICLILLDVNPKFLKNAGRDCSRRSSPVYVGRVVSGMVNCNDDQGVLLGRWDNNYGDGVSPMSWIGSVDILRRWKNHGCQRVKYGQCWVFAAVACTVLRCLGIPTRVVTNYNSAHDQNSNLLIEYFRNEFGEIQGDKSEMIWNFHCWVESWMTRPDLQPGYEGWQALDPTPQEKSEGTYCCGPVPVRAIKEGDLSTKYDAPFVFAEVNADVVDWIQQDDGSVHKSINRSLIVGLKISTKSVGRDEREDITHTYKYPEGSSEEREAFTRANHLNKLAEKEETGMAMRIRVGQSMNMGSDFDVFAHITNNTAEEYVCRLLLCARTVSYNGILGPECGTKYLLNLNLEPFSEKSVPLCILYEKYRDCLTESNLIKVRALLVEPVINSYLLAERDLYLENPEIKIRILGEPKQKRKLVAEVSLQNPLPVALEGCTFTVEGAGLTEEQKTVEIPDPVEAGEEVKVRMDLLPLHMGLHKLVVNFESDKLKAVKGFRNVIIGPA

[4] = test system: various forms of elastases and proteinase; details: cited from earlier work

Compound: O=C(CO)[C@@H](O)[C@H](O)[C@H](O)CO [fructose, reference compound]
- serpin protein levels ([1]; grown for 48 h on different carbohydrates, compared to all other sugars tested (FIG. 1)): increase B. longum NCC 2705 serpin protein levels
- serpin induction ([1]; grown on different carbohydrates for 24 h and 48 h (FIG. 2)): induce serpin in B. longum NCC 2705 to a higher magnitude than galactose
- growth (culture density, Optical Density at 600 nm) [2]: retarded growth

Compound: OC[C@H]1O[C@@](CO)(O[C@H]2O[C@H](CO)[C@@H](O)[C@H](O)[C@H]2O)[C@@H](O)[C@@H]1O [saccharose]
- serpin production ([1]; 1 wt %, 48 h of growth, MRSc base without sugar (FIG. 3)): induce strongly serpin production

Compound: elafin: human serine protease inhibitor (AQEPVKGPVSTKPGSCPIILIRCAMLNPPNRCLKDTDCPGIKKCCEGSCGMACFVPQ; ends and bridges not checked; cysteine pairing not given here; UniProt P19957 61-117, looked up)
- inhibition of transglutaminase 2 (TG2) [3]: moderately inhibits transglutaminase 2 (TG2)
- inhibitory capacity against elastases and proteinase [4]: potent inhibitory capacity

Compound: OC[C@H]1O[C@H](OC[C@H]2O[C@H](O[C@]3(CO)O[C@H](CO)[C@@H](O)[C@@H]3O)[C@H](O)[C@@H](O)[C@@H]2O)[C@H](O)[C@@H](O)[C@H]1O [raffinose]
- serpin levels ([1]; 0.5 wt %, 48 h of growth, MRSc base without sugar (FIG. 3), effect not obtained at 1 wt %): significant increase in serpin levels
